Target: T1, VvCAT2
T1 construct: gene CAT2; full-length, C-terminal 6His, reconstituted in proteoliposomes
Assay: competitive inhibition of [3H]arginine uptake in proteoliposomes with purified transporter (Lineweaver-Burk); also transported as [3H]ornithine
Assay type: biochemical, Vitis vinifera

`NCCC[C@H](N)C(=O)O` [ornithine] was tested. Which Ki did it give?
Its Ki is 2.2 ± 0.5 mM.
